In PubChem BioAssay (NCI):
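Cells were grown in 96-well plates and exposed to each compound for 48 hours at five concentrations; endpoints were interpolated linearly between bracketing concentrations, or set to the highest concentration if not reached. GI50 marks 50% less growth. The concentration for full growth arrest is given as TGI.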

What was measured:
Assay in all cases: inhibition of tumour cell growth, NCI panel, 48 h
786-0 renal = tested on: 786-0 renal
A498 renal = tested on: A498 renal
A549 NSCLC = tested on: A549 NSCLC
ACHN renal = tested on: ACHN renal
BT-549 breast = tested on: BT-549 breast
CAKI-1 renal = tested on: CAKI-1 renal
CCRF-CEM leukemia = tested on: CCRF-CEM leukemia
COLO 205 colon = tested on: COLO 205 colon
DU-145 prostate = tested on: DU-145 prostate
EKVX NSCLC = tested on: EKVX NSCLC
HCC-2998 colon = tested on: HCC-2998 colon
HCT-116 colon = tested on: HCT-116 colon
HCT-15 colon = tested on: HCT-15 colon
HL-60(TB) leukemia = tested on: HL-60(TB) leukemia
HOP-62 NSCLC = tested on: HOP-62 NSCLC
HOP-92 NSCLC = tested on: HOP-92 NSCLC
HS 578T breast = tested on: HS 578T breast
HT29 colon = tested on: HT29 colon
IGROV1 ovarian = tested on: IGROV1 ovarian
K-562 leukemia = tested on: K-562 leukemia
KM12 colon = tested on: KM12 colon
LOX IMVI melanoma = tested on: LOX IMVI melanoma
M14 melanoma = tested on: M14 melanoma
MALME-3M melanoma = tested on: MALME-3M melanoma
MCF7 breast = tested on: MCF7 breast
MDA-MB-231 breast = tested on: MDA-MB-231 breast
MDA-MB-435 = tested on: MDA-MB-435
MOLT-4 leukemia = tested on: MOLT-4 leukemia
NCI-H226 lung = tested on: NCI-H226 lung
NCI-H23 lung = tested on: NCI-H23 lung
NCI-H460 lung = tested on: NCI-H460 lung
NCI-H522 lung = tested on: NCI-H522 lung
NCI/ADR-RES ovarian = tested on: NCI/ADR-RES ovarian
OVCAR-3 ovarian = tested on: OVCAR-3 ovarian
OVCAR-4 ovarian = tested on: OVCAR-4 ovarian
OVCAR-5 ovarian = tested on: OVCAR-5 ovarian
OVCAR-8 ovarian = tested on: OVCAR-8 ovarian
PC-3 prostate = tested on: PC-3 prostate
RPMI-8226 leukemia = tested on: RPMI-8226 leukemia
RXF 393 renal = tested on: RXF 393 renal
SF-268 CNS = tested on: SF-268 CNS
SF-295 CNS = tested on: SF-295 CNS
SF-539 CNS = tested on: SF-539 CNS
SK-MEL-2 melanoma = tested on: SK-MEL-2 melanoma
SK-MEL-28 melanoma = tested on: SK-MEL-28 melanoma
SK-MEL-5 melanoma = tested on: SK-MEL-5 melanoma
SK-OV-3 ovarian = tested on: SK-OV-3 ovarian
SN12C renal = tested on: SN12C renal
SNB-19 CNS = tested on: SNB-19 CNS
SNB-75 CNS = tested on: SNB-75 CNS
SR leukemia = tested on: SR leukemia
SW-620 colon = tested on: SW-620 colon
T-47D breast = tested on: T-47D breast
TK-10 renal = tested on: TK-10 renal
U251 CNS = tested on: U251 CNS
UACC-257 melanoma = tested on: UACC-257 melanoma
UACC-62 melanoma = tested on: UACC-62 melanoma
UO-31 renal = tested on: UO-31 renal

Work on `O=Cc1ccc(O)c2ncccc12` yielded a GI50 (786-0 renal) of 13.4 µM, a TGI (786-0 renal) of 73.2 µM and a GI50 (A498 renal) of 25.4 µM. The TGI (A498 renal) was greater than 63.9 µM, the GI50 (A549 NSCLC) was 28.1 µM and the TGI (A549 NSCLC) was greater than 100 µM. The GI50 (ACHN renal) was 12.9 µM, the TGI (ACHN renal) was greater than 100 µM and the GI50 (BT-549 breast) was 3.59 µM. For the same compound, the TGI (BT-549 breast) was greater than 71.8 µM, the GI50 (CAKI-1 renal) was 7.29 µM and the TGI (CAKI-1 renal) was 35.4 µM. For the same compound, the GI50 (CCRF-CEM leukemia) was 0.952 µM, the TGI (CCRF-CEM leukemia) was greater than 32 µM and the GI50 (COLO 205 colon) was 3.71 µM. For the same compound, the TGI (COLO 205 colon) was 17.5 µM, the GI50 (DU-145 prostate) was 7.28 µM and the TGI (DU-145 prostate) was 32.1 µM. For the same compound, the GI50 (EKVX NSCLC) was 3.01 µM, the TGI (EKVX NSCLC) was 23.9 µM and the GI50 (HCC-2998 colon) was 11.8 µM. The TGI (HCC-2998 colon) was 41.8 µM, the GI50 (HCT-116 colon) was 2.54 µM and the TGI (HCT-116 colon) was 11.7 µM. For the same compound, the GI50 (HCT-15 colon) was 1.29 µM, the TGI (HCT-15 colon) was 18.3 µM and the TGI (HL-60(TB) leukemia) was greater than 100 µM. It also gave a GI50 (HOP-62 NSCLC) of 5.59 µM, a TGI (HOP-62 NSCLC) of 45.3 µM and a GI50 (HOP-92 NSCLC) of 5.01 µM. The TGI (HOP-92 NSCLC) was greater than 73.5 µM, the GI50 (HS 578T breast) was 7.05 µM and the TGI (HS 578T breast) was greater than 53.7 µM. For the same compound, the GI50 (HT29 colon) was 7.46 µM, the TGI (HT29 colon) was 34.7 µM and the GI50 (IGROV1 ovarian) was 3.32 µM. For the same compound, the TGI (IGROV1 ovarian) was 16.8 µM, the GI50 (K-562 leukemia) was 3.29 µM and the TGI (K-562 leukemia) was greater than 100 µM. It also gave a GI50 (KM12 colon) of 5.65 µM, a TGI (KM12 colon) of 40.5 µM and a GI50 (LOX IMVI melanoma) of 2.31 µM. The TGI (LOX IMVI melanoma) was greater than 54.5 µM, the GI50 (M14 melanoma) was 2.99 µM and the TGI (M14 melanoma) was 26.1 µM. The GI50 (MALME-3M melanoma) was 3.62 µM, the TGI (MALME-3M melanoma) was 30.4 µM and the GI50 (MCF7 breast) was 2.45 µM. The TGI (MCF7 breast) was 8.11 µM, the GI50 (MDA-MB-231 breast) was 4.21 µM and the TGI (MDA-MB-231 breast) was greater than 100 µM. For the same compound, the GI50 (MDA-MB-435) was 3.83 µM, the TGI (MDA-MB-435) was 27.8 µM and the TGI (MOLT-4 leukemia) was greater than 38.8 µM. It also gave a GI50 (NCI-H226 lung) of 4.88 µM, a TGI (NCI-H226 lung) greater than 79.1 µM and a GI50 (NCI-H23 lung) of 3.42 µM. It also gave a TGI (NCI-H23 lung) greater than 55.8 µM, a GI50 (NCI-H460 lung) of 3.47 µM and a TGI (NCI-H460 lung) of 17.2 µM. It also gave a GI50 (NCI-H522 lung) of 25.5 µM, a TGI (NCI-H522 lung) of 90.8 µM and a GI50 (NCI/ADR-RES ovarian) of 2.2 µM. For the same compound, the TGI (NCI/ADR-RES ovarian) was greater than 29.4 µM, the GI50 (OVCAR-3 ovarian) was 1.4 µM and the TGI (OVCAR-3 ovarian) was 6.85 µM. It also gave a GI50 (OVCAR-4 ovarian) of 2.91 µM, a TGI (OVCAR-4 ovarian) greater than 100 µM and a GI50 (OVCAR-5 ovarian) of 4.65 µM. For the same compound, the TGI (OVCAR-5 ovarian) was 65.5 µM, the GI50 (OVCAR-8 ovarian) was 3.28 µM and the TGI (OVCAR-8 ovarian) was greater than 100 µM. For the same compound, the GI50 (PC-3 prostate) was 4.01 µM, the TGI (PC-3 prostate) was greater than 46.6 µM and the GI50 (RPMI-8226 leukemia) was 2.2 µM. It also gave a TGI (RPMI-8226 leukemia) of 15.8 µM, a GI50 (RXF 393 renal) of 10.4 µM and a TGI (RXF 393 renal) of 33.8 µM. For the same compound, the GI50 (SF-268 CNS) was 2.65 µM, the TGI (SF-268 CNS) was greater than 100 µM and the GI50 (SF-295 CNS) was 2.12 µM. It also gave a TGI (SF-295 CNS) of 13.1 µM, a GI50 (SF-539 CNS) of 3.33 µM and a TGI (SF-539 CNS) of 19.3 µM. It also gave a GI50 (SK-MEL-2 melanoma) of 25.8 µM, a TGI (SK-MEL-2 melanoma) greater than 96 µM and a GI50 (SK-MEL-28 melanoma) of 7.14 µM. For the same compound, the TGI (SK-MEL-28 melanoma) was greater than 53.3 µM, the GI50 (SK-MEL-5 melanoma) was 2.4 µM and the TGI (SK-MEL-5 melanoma) was 9.45 µM. For the same compound, the GI50 (SK-OV-3 ovarian) was 10.8 µM, the TGI (SK-OV-3 ovarian) was 39.3 µM and the GI50 (SN12C renal) was 3.81 µM. It also gave a TGI (SN12C renal) greater than 100 µM, a GI50 (SNB-19 CNS) of 6.03 µM and a TGI (SNB-19 CNS) greater than 100 µM. It also gave a GI50 (SNB-75 CNS) of 16.9 µM, a TGI (SNB-75 CNS) greater than 82.4 µM and a GI50 (SR leukemia) of 0.858 µM. It also gave a TGI (SR leukemia) greater than 31.8 µM, a GI50 (SW-620 colon) of 3.91 µM and a TGI (SW-620 colon) of 16.6 µM. It also gave a GI50 (T-47D breast) of 2.56 µM, a TGI (T-47D breast) greater than 76 µM and a GI50 (TK-10 renal) of 17.4 µM. It also gave a TGI (TK-10 renal) of 52.5 µM, a GI50 (U251 CNS) of 2.4 µM and a TGI (U251 CNS) of 23.3 µM. It also gave a GI50 (UACC-257 melanoma) of 3.45 µM, a TGI (UACC-257 melanoma) greater than 53.1 µM and a GI50 (UACC-62 melanoma) of 3.58 µM. For the same compound, the TGI (UACC-62 melanoma) was 27.6 µM, the GI50 (UO-31 renal) was 4.96 µM and the TGI (UO-31 renal) was 36.9 µM.
